# Source: patent US20260216352A1, “DIRECTED BIOSYNTHESIS OF MODIFIED ANTHRAQUINONE-FUSED ENEDIYNES AS POTENTIAL CANCER THERAPEUTICS” (The Johns Hopkins University, priority 2023, published 2026)
# Assays:
# [1] = format: physicochemical
# Text: With the indication that substituents larger than two carbons probably are not tolerated by the mutasynthetic approach, we focused on repurposing the methyl ketone to generate other smaller substituents. […] Removal of the acetyl protecting group in refluxing HCl-ethanol solution provided the 9-amino-5-iodoanthracene-g-thiolactone 45 (Scheme 4). Incorporation of 45 in a Δorf15 fermentation was again successful, as hoped, producing deshydroxy amino-DYN analogue 50 as the major product, accompanied by the low production of the desdihydroxy DYN analogue 51 (FIG. 31).
# wild type M. chersina = assay: Small-scale supplementation of wild type M. chersina fermentation and analysis of dynemicin A production; parameters: species or system Micromonospora chersina; conditions: for Restoration of Dyn production: wild type M. chersina, no added NaI / sodium halide in the fermentation medium
# Protocol: Samples cut from medium 53 agar were used to inoculate 50 mL liquid medium 53 cultures. The cultures were shaken at 28° C. for seven days. Then, samples from these vegetative cultures were used to inoculate H881 media (10 g/L soluble starch, 5 g/L Pharmamedia, 1 g/L CaCO3, 0.05 g/L CuSO4·5 H2O and 0.0005 g/L NaI) for fermentation. These cultures were then shaken at 28° C. for 7 days.
# Samples (5 mL) of fermentations were extracted with 5 mL of ethyl acetate by vortexing the emulsion for one minute and separating the layers by centrifugation at 4000×g. The ethyl acetate layer (4 mL) was isolated and dried by SpeedVac at room temperature. The residue was then resuspended in 200 μL of dimethyl sulfoxide and filtered through 0.2 μm polytetrafluoroethylene filters for analysis on an Agilent 1200 HPLC equipped with a Phenomenex Prodigy ODS3 100 Å, 5 μm, 250×4.6 mm column. Injections were 30 μL and separated with a gradient method increasing from 5% to 95% acetonitrile supplemented with 0.1% formic acid over 40 min, followed by a 10 min hold at 95% acetonitrile before re-equilibration. The method was run at 1 mL/min and monitored at 280, 375, 450 and 570 nm.
# Wild type M. chersina mycelial stock […] was plated on med 53, Lam et al., 1995, with 2% agar and grown at 28° C. After 7 d, mycelia from the plate were inoculated into 50 mL med 53 liquid fermentation medium in a 125 mL Erlenmeyer flask and shaken at 250 rpm at 28° C. for another 7 d. This starter culture (2 mL) was inoculated into 50-mL H881 liquid medium, Lam et al., 1995, with or without added NaI (0.5 mg/L) in 250-mL Erlenmeyer flask and shaken at 250 rpm and 28° C. After 24 h, […] of 2-mM stock solutions of 5, 13 and 25 in DMSO (sterile filtered using 0.2-μm PTFE filters) were added to the respective flasks with or without NaI supplementation to provide a final concentration of the added compounds of […]. After shaking at 250 rpm and 28° C. for another 2 d, Diaion® HP-20 (0.50 g, sterilized by autoclave) was added to each flask and shaking was continued for another 4 d. After a total 7 d of fermentation, 5 mL from each sample was extracted with 5 mL of EtOAc by vortexing for 1 min. Extracts were centrifuged at 4000×g and 4° C. for 5 min, and 4 mL of each EtOAc layer was dried by SpeedVac without heating. Samples were dissolved in 200 μL DMSO, filtered through 0.2 μm PTFE filters and analyzed on an Agilent 1200 HPLC using a Prodigy ODS3 100 Å, […], 250×4.6 mm column (Phenomenex). A gradient method of 5-95% ACN+0.1% (v/v) formic acid over 40 min, followed by 10 min hold at 95% ACN before column re-equilibration was used at a 1 mL/min flow rate to achieve separation of metabolites. Production of dynemicin and other related metabolites was monitored at 280 nm, 450 nm, and 570 nm. […]
# [2] = system: transplantable cervical carcinoma HeLa, leukemia P388, L-1210 and melanoma B16; conditions: cited from earlier work
# cancer cells = conditions: read-out: In vitro IC50; cited from earlier work
Compound,Restoration of Dyn production (wild type M. chersina),In vivo ID50 [2] [mg/kg],IC50 (cancer cells) [nM],other results
"Nc1ccc2cc3c(I)ccc4c3c(c2c1)SC4=O [Compound 45, 9-Amino-5-iodo-2H-anthra[9,1-bc]thiophen-2-one]",–,–,–,Oxidative stability [1]: oxidatively unstable
"Nc1ccc2c3c(c4ccccc4cc13)SC2=O [aminoanthracene 25, 5-Amino-2H-anthra[9,1-bc]thiophen-2-one]",failed to rescue Dyn production,–,–,–
"O=C1Sc2c3ccccc3cc3c(Br)ccc1c23 [bromoanthracene 13, 5-Bromo-2H-anthra[9,1-bc]thiophen-2-one]",not restored,–,–,"Effect on Dyn production (wild type M. chersina; wild type M. chersina fermentation medium with added sodium iodide, increasing concentrations of 13): decrease Dyn production"
"O=C1Sc2c3ccccc3cc3c(I)ccc1c23 [iodoanthracene 5, 5-Iodo-2H-anthra[9,1-bc]thiophen-2-one]",fully restored Dyn production,–,–,–
Calicheamicins,–,0.0005 to 0.0015,6 to 9,–
Neocarzinostatin,–,0.38,225 to 900,–
